# Assays:
# [1] = RP, Waters ACQUITY UPLC BEH C18, 100 × 1 mm, 1.7 µm, 50 °C, 0.3 mL/min, estimated dead time 0.17 min; A: water + 0.1% formic acid + 20 mM ammonium formate; B: methanol + 0.1% formic acid + 20 mM ammonium formate; gradient (min/%B) 0/0 15/100 21/100 22/0 30/0; details: stereoisomer not certain
# [2] = RP, Waters ACQUITY UPLC BEH C18, 100 × 1 mm, 1.7 µm, 50 °C, 0.3 mL/min, estimated dead time 0.17 min; A: water + 10 mM ammonium bicarbonate; B: 10% water + 90% methanol + 10 mM ammonium bicarbonate; gradient (min/%B) 0/0 15/100 21/100 22/0 30/0; details: stereoisomer not certain
LC retention time [1] [min],LC retention time [2] [min],Structure (SMILES)
12.6,12.9,COCN(COC)c1nc(N(COC)COC)nc(N(COC)COC)n1 [Hexa(methoxymethyl)melamine]
9.4,14,COC(=O)CC(O)(CCCC(C)(C)O)C(=O)OC1C(OC)=CC23CCCN2CCc2cc4c(cc2C13)OCO4 (stereo unspecified) [Homoharringtonine]
7.5,11.1,CC=C1C2C=C(C)CC1(N)c1ccc(=O)[nH]c1C2 (stereo unspecified) [Huperzin A]
7.34,14.1,CCN(CCO)CCCC(C)Nc1ccnc2cc(Cl)ccc12 (stereo unspecified) [Hydroxychloroquine]
9.67,6.8,O=c1c(OC2OC(CO)C(O)C(O)C2O)c(-c2ccc(O)c(O)c2)oc2cc(O)cc(O)c12 (stereo unspecified) [Hyperoside]
13.7,14,CCC(C)OC(=O)N1CCCCC1CCO (stereo unspecified) [Icaridin]
11.2,13.9,Cc1ccc(NC(=O)c2ccc(CN3CCN(C)CC3)cc2)cc1Nc1nccc(-c2cccnc2)n1 [Imatinib]
13.9,14.2,O=C(Nc1ccc(Cl)cc1C(O)c1ccccc1)c1ccncc1 (stereo unspecified) [Inabenfide]
3.66,3.64,CC(O)C(=O)Nc1c(I)c(C(=O)NC(CO)CO)c(I)c(C(=O)NC(CO)CO)c1I (stereo unspecified) [Iopamidol]
14.8,15.1,Cc1ccc(C(C)NC(=O)C(NC(=O)OC(C)C)C(C)C)cc1 (stereo unspecified) [Iprovalicarb]
11.7,11.9,CC1=CC(=O)CC(C)(C)C1 [Isophorone]
15.4,15.7,CCOC(=O)C1=NOC(c2ccccc2)(c2ccccc2)C1 [Isoxadifen-ethyl]
18.8,19.3,CCC(C)C1OC2(CCC1C)CC1CC(CC=C(C)C(OC3CC(OC)C(OC4CC(OC)C(O)C(C)O4)C(C)O3)C(C)C=CC=C3COC4C(O)C(C)=CC(C(=O)O1)C34O)O2 (stereo unspecified) [Ivermectin B1a]
12.3,10.1,O=c1c(O)c(-c2ccc(O)cc2)oc2cc(O)cc(O)c12 [Kaempferol]
13.3,16.1,CC(=O)N1CCN(c2ccc(OCC3COC(Cn4ccnc4)(c4ccc(Cl)cc4Cl)O3)cc2)CC1 (stereo unspecified) [Ketoconazole]
10.4,14.7,CN1CCC(=C2c3ccccc3CC(=O)c3sccc32)CC1 [Ketotifen]
14.1,12.9,[NH3+][C@@H](Cc1cc(I)c(Oc2cc(I)c(O)c(I)c2)c(I)c1)C(=O)[O-] [L-thyroxine]
10.6,12.8,CC(CCc1ccccc1)NCC(O)c1ccc(O)c(C(N)=O)c1 (stereo unspecified) [Labetalol]
9.42,9.15,N=c1nc(N)c(-c2cccc(Cl)c2Cl)nn1O [Lamotrigin-N2-Oxid]

# The next lines start with the compound.
Structure (SMILES),LC retention time [1] [min],LC retention time [2] [min]
CCC(=O)OC1(C(=O)SCF)C(C)CC2C3CC(F)C4=CC(=O)C=CC4(C)C3(F)C(O)CC21C (stereo unspecified) [Fluticasone propionate],15.3,15.6
COCCCCC(=NOCCN)c1ccc(C(F)(F)F)cc1 [Fluvoxamine],13.5,15.3
CCOP(=O)(SC(C)CC)N1CCSC1=O (stereo unspecified) [Fosthiazate],12.6,12.8
COc1cc2ccc(=O)oc2c(O)c1OC [Fraxidin],9.59,8.22
CCCCOC(=O)N(C)SN(C)C(=O)Oc1cccc2c1OC(C)(C)C2 [Furathiocarb],16.7,17.1
O=C1CC2(CCCCC2)CN1 [Gabapentin-Lactam],11.3,11.4
NCC1(CC(=O)O)CCCCC1 [Gabapentin],7.38,6.17
CC1COC(=O)c2cc3c(cc21)C(C)(C)C(C)C3(C)C (stereo unspecified) [Galaxolidone],16.6,16.9
C#CC1(O)C=CC2C3CCC4=CC(=O)CCC4C3CCC21CC (stereo unspecified) [Gestoden],14,14.3
COc1ccc(Cl)cc1C(=O)NCCc1ccc(S(=O)(=O)NC(=O)NC2CCCCC2)cc1 [Glibenclamide],14.9,13.9
O=S(=O)(O)ON=C(Cc1c[nH]c2ccccc12)SC1OC(CO)C(O)C(O)C1O (stereo unspecified) [Glucobrassicin],6.39,6.03
Cc1nccc2c1[nH]c1ccccc12 [Harman],9.01,13.4
COc1ccc2c(c1)[nH]c1c(C)nccc12 [Harmine],9.88,13.5
CC1(C)CCC2(C(=O)O)CCC3(C)C(=CCC4C5(C)CCC(O)C(C)(CO)C5CCC43C)C2C1 (stereo unspecified) [Hederagenin],17.2,15.9
COC(C)C(O)(C(=O)OCC1=CC[N+]2([O-])CCC(O)C12)C(C)C (stereo unspecified) [Heliotrine N-oxide],8.36,8.96
COC(C)C(O)(C(=O)OCC1=CCN2CCC(O)C12)C(C)C (stereo unspecified) [Heliotrine],8.05,11.6
CN(C)c1nc(=O)n(C2CCCCC2)c(=O)n1C [Hexazinone],11.7,11.9
CC(C)C1(C)N=C(c2ncccc2C(=O)O)NC1=O (stereo unspecified) [Imazapyr],8.89,5.24
CC(C)C1(C)N=C(c2nc3ccccc3cc2C(=O)O)NC1=O (stereo unspecified) [Imazaquin],11.8,9.01
CCc1cnc(C2=NC(C)(C(C)C)C(=O)N2)c(C(=O)O)c1 (stereo unspecified) [Imazethapyr],11.2,8
O=[N+]([O-])N=C1NCCN1Cc1ccc(Cl)nc1 [Imidacloprid],8.69,8.74
CC(C)=CCOc1c2occc2cc2ccc(=O)oc12 [Imperatorin],14.3,14.6
CNC(=O)Oc1ccccc1C(C)C [Isoprocarb],12.9,13.1
CCC(C)(CC)c1cc(NC(=O)c2c(OC)cccc2OC)on1 [Isoxaben],14.4,14.6
CC1CC2(OC2C)C(=O)OC2CC[N+]3([O-])CC=C(COC(=O)C1(C)O)C23 (stereo unspecified) [Jacobine N-oxide],6.84,7.35
CC1CC2(OC2C)C(=O)OC2CCN3CC=C(COC(=O)C1(C)O)C23 (stereo unspecified) [Jacobine],6.52,10.1
CC1=C2C(=O)C3C(CC=C4CC(O)CCC43C)C2CCC12OC1CC(C)CNC1C2C (stereo unspecified) [Jervine],11.7,15.2
CNC1(c2ccccc2Cl)CCCCC1=O (stereo unspecified) [Ketamine],8.96,13.5
CON=C(C(=O)OC)c1ccccc1COc1ccccc1C [Kresoxim-methyl],15.4,15.8

# Reference: the RepoRT retention time repository (doi:10.1021/acs.analchem.1c00972)
